≈ marks a conversion by molar mass, not a printed value. Like-named read-outs stand apart in the source and are kept apart here.
Experiments:
[1] = molecular target: T1, FBD35 (PfFKBP35 binding domain) (Plasmodium falciparum, UniProt Q8I4V8); experiment: Fluorescence polarization competition, FBD35
T1 construct: FKBP35 Q5 -A128; 6His-SUMO (N, cleaved yes); made in house; host or cells: E. coli BL21 DE3

FKBP12 [2] = molecular target: T2, FKBP12 (Homo sapiens, UniProt P62942); experiment: Fluorescence polarization competition, FKBP12; assay type: binding
T2 construct: 6His-SUMO (N, cleaved yes); made in house; host or cells: E. coli (identical protocol to FBD35, BL21 DE3)
T2 sequence (P62942 whole entry): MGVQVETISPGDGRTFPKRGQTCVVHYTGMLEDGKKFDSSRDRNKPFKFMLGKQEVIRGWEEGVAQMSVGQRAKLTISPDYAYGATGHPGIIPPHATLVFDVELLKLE

[3] = molecular target: T1, FBD35 (PfFKBP35 binding domain); experiment: Differential scanning calorimetry, FBD35; conditions: read-out: FBD35 ΔTM
FKBP12 [4] = molecular target: T2, FKBP12; experiment: Differential scanning calorimetry, FKBP12; assay type: binding; conditions: compound 40 µM
[5] = molecular target: T3, nLuc-tagged full length PfFKBP35 (Plasmodium falciparum, UniProt Q8I4V8); experiment: NanoBRET cellular target engagement, nLuc-FKBP35; assay type: cell-based
T3 construct: nanoluciferase-tagged (nLuc) full length PfFKBP35 or nLuc-tagged FKBP12; expressed in transfected cells
T3 sequence (Q8I4V8 whole entry): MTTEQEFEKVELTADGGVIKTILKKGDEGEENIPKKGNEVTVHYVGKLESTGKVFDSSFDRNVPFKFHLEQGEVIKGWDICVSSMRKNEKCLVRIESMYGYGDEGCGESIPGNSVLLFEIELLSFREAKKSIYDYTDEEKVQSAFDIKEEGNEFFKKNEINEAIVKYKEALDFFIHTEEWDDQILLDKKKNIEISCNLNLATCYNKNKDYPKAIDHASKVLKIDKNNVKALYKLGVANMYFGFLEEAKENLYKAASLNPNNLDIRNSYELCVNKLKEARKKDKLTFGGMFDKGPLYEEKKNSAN

nLuc-tagged FKBP12 = molecular target: T4, nLuc-tagged FKBP12 (Homo sapiens, UniProt P62942); experiment: NanoBRET cellular target engagement, nLuc-FKBP12; assay type: cell-based
T4 construct: full length Plasmodium falciparum FKBP35 and human FKBP12 DNA were; expressed in transfected cells
T4 sequence (P62942 whole entry): as the sequence (P62942 whole entry) above

PBS solubility = conditions: pH 7.4
FKBP35 = molecular target: T5, FKBP35 (Plasmodium falciparum, UniProt Q8I4V8); experiment: Time course of covalent modification by LC-MS; assay type: biochemical
T5 construct: FKBP35 Q5 -A128; 6His-SUMO (N, cleaved yes); made in house; host or cells: E. coli BL21 DE3
T5 sequence (Q8I4V8 5-128): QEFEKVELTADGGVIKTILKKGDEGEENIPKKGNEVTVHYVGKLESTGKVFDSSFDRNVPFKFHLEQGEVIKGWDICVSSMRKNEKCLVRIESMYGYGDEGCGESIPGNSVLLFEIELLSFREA
From the text: RT=5.2). B. Overlay of mass determinations from LC traces in (A). FBD35 only (black, m/z = […]
chromatogram corresponding to Figure 4c detecting the CAM -peptide […] at […]
m/z 855.8668. D. Mass spec chromatogram corresponding to Figure 4d detecting the CAM - […]
peptide […] at m/z 855.8670. E. Mass spec chromatogram corresponding to Figure 4e which was unable to detect the mass of the 1c-inclusion peptide. F. Mass spec chromatogram corresponding to Figure 4f detecting the 1c-inclusion peptide […]
Figure S2. Time course of covalent modification. In order to compare rates of covalent modification, compounds 1a-c, 2a, and 2c were incubated with FKBP35 in a 5:1 ratio (2250 nM inhibitor : 450 nM FKBP35) and FKBP35 consumption or modification determined by LC -MS. A.
The concentration of residual FKBP35 as a function of time. Data was fit to an exponential “one phase decay” model which was used to calculate the rate (K) and half -life (t1/2) of the reaction.
The loss of FKBP35 in the DMSO and 1b controls is likely due to adsorption onto the vial. B.
Concentration of covalent adduct as a function of time. Data was fit to an “exponential plateau” regression model, which was used to calculate the rate of formation (K’). Compound 1b, which […]
C. Tabulated rates calculated from the regressions in A and B. The rates of FKBP35 consumption correlate strongly with the rates of […]
(also on this page, place not known: -inclusion 1c 0 20 40 60 0 200 400 600 Time (hours) FKBP35 (nM) Consumption of FKBP35 1a 1b 1c 2a 2c DMSO 0 20 40 60 0 200 400 600 Time (hours) Covalent Adduct (nM) Formation of Covalent Adduct 1a 1b 1c 2a 2c A B) […]
(1 picture or pasted object on this page, not shown here)
Experiments were performed using 0.4 mg/mL concentration of wild -type or mutant protein (6 - 9 uM), with and without synthes ized compounds at 40 µM and 2% DMSO (V/V). The respective reference scans were run under identical DSC conditions and subtracted from each sample scan.
The program was run in a continuous acquisition mode from 25°C to 90°C at a rate of 120C/h The heat capacity curves and midpoint temperature (Tm) were analyzed using Origin 7.0 software.
Fluorescence Polarization
The fluorescent tracer SLFb-2PEG-TAMRA was diluted in DMSO to 100 nM (100x stock concentration). FKBP proteins were diluted in assay buffer (150 mM NaCl, 20 mM HEPES pH 7.5, 0.002% Triton X -100) to the indicated concentration. 100x DMSO tracer stock was added to the protein buffer solution to a 1X final concentration and 20 µL of the mixture was aliquoted into each well of a black 384 -well assay plate (No. 3820, Corning Life Sciences). The plate was briefly centrifuged to remove bubbles. Using a d300e digital dispenser (Tecan), competitive ligands (10 mM stock in DMSO) were aliquoted in triplicate in an 8 -point 3x dilution series (30 µM to 13.7 nM final concentra tion) and normalized to 2% total DMSO concentration. Following incubation at room temperature (RT) for one hour, fluorescence polarization was measured using an EnVision Multimode Plate Reader (PerkinElmer) with the TAMRA Dual -FP mirror and filter kit. […]
analyzed in GraphPad Prism 8 by fitting the data to the “One Site – Fit Ki” model to obtain the […]
Time Course Analysis of Covalent Inhibition
The following analy sis was performed as described on two different days, yielding similar results.
One replicate is shown for clarity. In 1.5 mL snap -top tubes, ligands 1a, 1b, 1c, 2a, and 2c were each diluted to 450 μM in DMSO to produce 200x stock solutions. In a separate 1.5 mL snap-top tube, isolated FKBP35 protein was diluted to 90 μM in the reaction buffer (150 mM NaCl, 20 mM HEPES pH = 7.5) to produce a 200x stock solution. In 2 mL glass mass spec vials, 5 μL of each 200x ligand solution was diluted in 990 μL reaction buffer. Immediately prior to injection of each t=0 time point, 5 μL of the 200x protein solution was added to the mass spec vial and mixed. Samples were analyzed using the Waters BioAccord LC-ToF (composed of an ACQUITY I -Class UPLC and […]

T1 sequence (Q8I4V8 5-128): as above

IC50 (FKBP12 [2]; fluorescence polarization, competitive inhibition model, read-out: FKBP12 IC50) [nM]	ΔTm at 40 µM ([3]; differential scanning calorimetry, compound 40 µM) [°C]	Structure (SMILES)	IC50 [1] [nM]	IC50 (FKBP12 [2]) [nM]	ΔTm at 40 µM [3] [°C]	ΔTm at 40 µM (FKBP12 [4]) [°C]	IC50 [5] [nM]	IC50 (nLuc-tagged FKBP12) [nM]	IC50 ([1]; read-out: FBD35 IC50, fluorescence polarization, competitive inhibition model, * incomplete displacement of fluorescent probe) [nM]	solubility (PBS solubility) [µM]	K, rate of FKBP35 consumption (FKBP35; 2250 nM inhibitor : 450 nM FKBP35, 23 °C, one phase decay fit) [h⁻¹]	K’, rate of covalent adduct formation (FKBP35; 2250 nM inhibitor : 450 nM FKBP35, exponential plateau fit) [h⁻¹]
–	–	CCC(=O)NCC(C)(C)C(=O)C(=O)N1CCCC[C@H]1C(=O)O[C@H](CCc1ccc(OC)c(OC)c1)c1ccccc1 [2b]	92	40	4.3	7.7	1880	416	–	–	–	–
–	–	C=CC(=O)Nc1cccc([C@@H](CCc2ccc(OC)c(OC)c2)OC(=O)[C@@H]2CCCCN2C(=O)C(=O)c2cc(OC)c(OC)c(OC)c2)c1 [1e]	–	326	1.5	4.9	–	–	> 30000	3.1 (≈ 2.09 µg/mL)	–	–
–	–	C=CC(=O)NCC(C)(C)C(=O)C(=O)N1CCCC[C@H]1C(=O)O[C@H](CCc1ccc(OC)c(OC)c1)c1ccccc1 [2a]	104	23	15.2	8.8	1350	501	–	–	0.05916	0.04354
> 30000	0.4	C=CC(=O)Nc1ccccc1C(=O)C(=O)N1CCCC[C@H]1C(=O)O[C@H](CCc1ccc(OC)c(OC)c1)c1ccccc1 [2f]	–	–	–	0.2	–	–	–	–	–	–
–	–	C=CC(=O)Nc1ccc([C@@H](CCc2ccc(OC)c(OC)c2)OC(=O)[C@@H]2CCCCN2C(=O)C(=O)C(C)(C)CC)cc1 [1d]	85	100	2.3	6	–	–	–	–	–	–
